Where a name gives a salt, the structure may show the parent alone.
Assays:
[1] = system: WT pNL4-3; experiment: CA-SP1 accumulation assay, WT NL4-3; type: cell-based, HIV-1; conditions: 100 nM compound, HeLa or 293T cells
Outline: (§1)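 HeLa or 293T cells transfected with proviral clone, maturation inhibitors present through transfection and labeling; at 24 h, [^35S]Met/Cys labeling 2-3 h. Virions pelleted by ultracentrifugation, lysed, CA and CA-SP1 resolved by SDS-PAGE and quantified by phosphorimaging.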

[2] = system: pNL4-3 SP1-V7A; experiment: CA-SP1 accumulation assay, SP1-V7A derivative; type: cell-based, HIV-1; conditions: 100 nM compound, HeLa or 293T cells
Outline: as §1

[3] = system: WT pNL4-3 in MT-4 cells; experiment: Antiviral assay in MT-4 cells (RT readout), WT NL4-3; type: cell-based, HIV-1; conditions: Human immunodeficiency virus 1, NL43, MT4, 96 h, read-out: Antiviral Assay IC50 (nM) NL4-3
Protocol: (§2) Cell culture, plasmids and transfections. The MT-4 T-cell line was maintained in RPMI-1640 medium supplemented with 10% (vol/vol) fetal bovine serum (FBS), 2 mM glutamine, 100 U/mL penicillin and 100 μg/mL streptomycin at 37° C. in a humidified 5% CO2 atmosphere. HeLa and 293T cells were maintained in Dulbecco's modified Eagle's medium (DMEM) supplemented with 5% (vol/vol) FBS, 2 mM glutamine, 100 U/mL penicillin and 100 μg/mL streptomycin. Molecular clones used in this study were WT pNL4-3 and the derivative encoding a Val-to-Ala mutation at SP1 residue 7, referred to as SP1-V7A. The MT-4 T-cell line was transfected the DEAE/dextran procedure; HeLa and 293T cells were transfected with linear polyethylenimine (L-PEI) or Lipofectamine 2000 (Invitrogen) as recommended by the supplier.
(§3) Antiviral assays. To produce HIV-1 stocks, 293T cells were transfected with WT pNL4-3 or the SP1-V7A derivative and culture supernatants were collected 24 h post transfection. RT-normalized virus supernatants were used to infect MT-4 cells at room temperature for 30 min. Cells were then cultured in the presence of serial dilutions of compounds. […] The IC50s in primary peripheral blood mononuclear cells (PBMCs) were calculated with a multi-clade panel of HIV-1 isolates by Southern Research Institute (Frederick, Md.). […]

[4] = system: pNL4-3 SP1-V7A in MT-4 cells; experiment: Antiviral assay in MT-4 cells (RT readout), SP1-V7A; type: cell-based, HIV-1; conditions: Human immunodeficiency virus 1, MT4, 96 h, read-out: Antiviral Assay IC50 (nM) SP1 V7A
Protocol: as §2, §3

[5] = Cytotoxicity assay CellTiter-Blue, MT-4; type: cell-based; conditions: human; MT-4 cells, 4 to 8 days; mean ± SEM, three experiments
Protocol: (§4) Cytotoxicity assays. Cytotoxicity was measured with CellTiter-Blue® Cell Viability Assay according to the manufacturer's protocol (Promega). Two cell lines, MT-4 and HeLa, were used in this assay. Cells were incubated with serial dilution of compounds at 37° C. for 4 to 8 days and subjected to CellTiter-Blue Reagent. The fluorescent signal was measured at 560 nm Ex/590 nm Em by a plate reader (TECAN, Infinite® M1000 PRO). The 50% cytotoxic concentrations (CC50s) were defined as compound concentrations at which the fluorescent signals were reduced by 50%/relative to the no-inhibitor (DMSO only) controls using GraphPad Prism 6 software and are reported in Table 1.

[6] = Cytotoxicity assay CellTiter-Blue, HeLa; type: cell-based; conditions: human; HeLa cells, 4 to 8 days; mean ± SEM, three experiments
Protocol: as §4

Compound: C=C(C)[C@@H]1CC[C@]2(CCNC3CCN(CCOC)CC3)CC[C@]3(C)[C@H](CC[C@@H]4[C@@]5(C)CC[C@H](OC(=O)CC(C)(C)CC(=O)O)C(C)(C)[C@@H]5CC[C@]43C)[C@@H]12 [Compound 51g, (3β)-17-[2-[[1-(2-Methoxyethyl)piperadin-4-yl]amino]ethyl]-28-norlup-20(29)-en-3-ol, 3-(5-Hydrogen 3,3-Dimethylpentanedioate), Bis(trifluoroacetate) Salt]
- % CA-SP1 Accumulation 100 nM NL4-3 [1]: 85.0 (2) %
- % CA-SP1 Accumulation 100 nM SP1 V7A [2]: 46.5 (3) %
- IC50 [3]: 2 ± 0.5 nM
- IC50 [4]: 19 ± 6 nM
- CC50 [5]: 406 ± 48 nM
- CC50 [6]: 551 ± 83 nM

Reference: patent US11236122B2, “Triterpene amine derivatives” (DFH THERAPEUTICS, priority 2018, dated 2022)
